Data reported in patent US12552797B2, “Process for making (3-[cyclopropylethoxy(difluoro)methyl]-6-6[5-fluoro-6-(2,2,2-trifluoroethoxy-3-pyridyl]- [1,2,4]triazolo[4,3-a]pyrazine” (Praxis Precision Medicines, Inc., priority 2019, dated 2026).

Assays:
[1] = Phase 1 single/multiple ascending dose and food effect trial in healthy volunteers: safety and tolerability; type: in vivo, human
Excerpt: This is a three-part clinical trial to evaluate the safety, tolerability, PK, and food effect of Compound 1 in healthy volunteers aged 18 to 55 years inclusive. The clinical trial is comprised of the following 3 parts: • Part A is randomized, double-blinded and placebo-controlled. Part A is designed to investigate the safety and PK of single ascending doses of Compound 1. • Part B is randomized, double-blinded and placebo-controlled. […]
Dosing in each dose level cohort starts with 2 sentinel participants with one of the 2 participants randomized to receive Compound 1 and the other participant randomized to receive placebo. The safety and tolerability of each sentinel participant are monitored until Day 6 and reviewed prior to dosing the remainder of participants in each cohort. […]
(§1) A dose level is evaluated in Part B if determined to be safe and tolerable in Part A. It is anticipated that 3 dose levels are evaluated in Part B in a total of 3 cohorts (Cohorts B1-B3). […]
as §1

[2] = Stability of suspension formulations in methylcellulose/Poloxamer 188 vehicles (appearance, concentration, purity, PSD); type: physicochemical; parameters: key: *: homogeneous suspension initially, sedimentation occurred over time and returned to homogeneous after gentle agitation; #: viscous homogeneous suspension initially, sedimentation occurred over time and returned to homogeneous after gentle agitation
Method: As shown in Tables 9-11, various suspension formulations were tested for stability under different conditions.
To prepare a suspension weigh required amount of milled Compound 1 into a glass container and add corresponding volume of the vehicle. Thoroughly disperse the compound into a homogenous suspension using an overhead mixer at the final concentration target. Concentrations were prepared at 0.1 mg/mL and at 10 mg/mL. The suspension products were physically evaluated on visual appearance, concentration, purity and PSD.
The vehicles are prepared by dissolving 0.5% by weight of either 400 cP methylcellulose or 4000 cP methylcellulose and 0.2% Poloxamer 188. For the preserved suspensions, additionally 1.0% by volume of paraben preservative solution was dissolved into vehicle using an overhead mixer. The paraben preservative solution was prepared by dissolving 0.10 g methyl paraben, 0.025 g propylparaben in 9.875 g propylene glycol dissolved by mixing with a stir bar at room temperature for 1 hour.

Visual Appearance ([2]; 0.5% 400 cP MC, 0.2% Poloxamer 188, 0.1 mg/mL, 1 h at RT): *
Visual Appearance ([2]; 0.5% 400 cP MC, 0.2% Poloxamer 188, 0.1 mg/mL, 4 h at RT): *
Visual Appearance ([2]; 0.5% 400 cP MC, 0.2% Poloxamer 188, 0.1 mg/mL, 24 h at RT): *
Visual Appearance ([2]; 0.5% 400 cP MC, 0.2% Poloxamer 188, 10 mg/mL, 1 h at RT): *
Visual Appearance ([2]; 0.5% 400 cP MC, 0.2% Poloxamer 188, 10 mg/mL, 4 h at RT): *
Visual Appearance ([2]; 0.5% 400 cP MC, 0.2% Poloxamer 188, 10 mg/mL, 24 h at RT): *
Visual Appearance ([2]; 0.5% 400 cP MC, 0.2% Poloxamer 188 and 1.0% of paraben preservative solution, 0.1 mg/mL, 1 h at RT): *
Visual Appearance ([2]; 0.5% 400 cP MC, 0.2% Poloxamer 188 and 1.0% of paraben preservative solution, 0.1 mg/mL, 4 h at RT): *
Visual Appearance ([2]; 0.5% 400 cP MC, 0.2% Poloxamer 188 and 1.0% of paraben preservative solution, 0.1 mg/mL, 24 h at RT): *
Visual Appearance ([2]; 0.5% 400 cP MC, 0.2% Poloxamer 188 and 1.0% of paraben preservative solution, 10 mg/mL, 1 h at RT): *
Visual Appearance ([2]; 0.5% 400 cP MC, 0.2% Poloxamer 188 and 1.0% of paraben preservative solution, 10 mg/mL, 4 h at RT): *
Visual Appearance ([2]; 0.5% 400 cP MC, 0.2% Poloxamer 188 and 1.0% of paraben preservative solution, 10 mg/mL, 24 h at RT): *
Visual Appearance ([2]; 0.5% 4000 cP MC, 0.2% Poloxamer 188, 0.1 mg/mL, 1 h at RT): #
Visual Appearance ([2]; 0.5% 4000 cP MC, 0.2% Poloxamer 188, 0.1 mg/mL, 4 h at RT): #
Visual Appearance ([2]; 0.5% 4000 cP MC, 0.2% Poloxamer 188, 0.1 mg/mL, 24 h at RT): #
Visual Appearance ([2]; 0.5% 4000 cP MC, 0.2% Poloxamer 188, 10 mg/mL, 1 h at RT): #
Visual Appearance ([2]; 0.5% 4000 cP MC, 0.2% Poloxamer 188, 10 mg/mL, 4 h at RT): #
Visual Appearance ([2]; 0.5% 4000 cP MC, 0.2% Poloxamer 188, 10 mg/mL, 24 h at RT): #
Visual Appearance ([2]; 0.5% 4000 cP MC, 0.2% Poloxamer 188 and 1.0% of paraben preservative solution, 0.1 mg/mL, 1 h at RT): #
Visual Appearance ([2]; 0.5% 4000 cP MC, 0.2% Poloxamer 188 and 1.0% of paraben preservative solution, 0.1 mg/mL, 4 h at RT): #
Visual Appearance ([2]; 0.5% 4000 cP MC, 0.2% Poloxamer 188 and 1.0% of paraben preservative solution, 0.1 mg/mL, 24 h at RT): #
Visual Appearance ([2]; 0.5% 4000 cP MC, 0.2% Poloxamer 188 and 1.0% of paraben preservative solution, 10 mg/mL, 1 h at RT): #
Visual Appearance ([2]; 0.5% 4000 cP MC, 0.2% Poloxamer 188 and 1.0% of paraben preservative solution, 10 mg/mL, 4 h at RT): #
Visual Appearance ([2]; 0.5% 4000 cP MC, 0.2% Poloxamer 188 and 1.0% of paraben preservative solution, 10 mg/mL, 24 h at RT): #
SMILES: CCOC(F)(F)c1nnc2cnc(-c3cnc(OCC(F)(F)F)c(F)c3)cn12 [Compound 1, 3-(ethoxydifluoromethyl)-6-(5-fluoro-6-(2,2,2-trifluoroethoxy)pyridin-3-yl)-[1,2,4]triazolo[4,3-a]pyrazine]
tolerability ([1]; Part A single ascending doses, first four of six planned cohorts, preliminary analysis): well tolerated
Serious Adverse Events, severe Adverse Events, or Adverse Events leading to study withdrawal or discontinuation ([1]; Part A, first three cohorts tested): no reported
